Where a name gives a salt, the structure may show the parent alone. Read-outs that look alike come from different tables or passages of the source.
Tests used:
DNA strand breaks = details: cited from earlier work
ada gene = details: cited from earlier work
ada promoter = test: ada promoter-lacZ induction (preferred kit, β-galactosidase); details: MMS 470 μM to 1880 μM; FIG. 9
nfo promoter = test: nfo promoter-controlled β-galactosidase expression (Example 7)
dinD promoter [1] = test: dinD promoter-controlled β-galactosidase expression (Example 7); details: for dinD controlled β-galactosidase expression: 5 μg/ml, 0 min 321
adaA promoter = test: adaA (ada-alkA) promoter-controlled β-galactosidase expression (Example 7)
in vitro [2] = details: clpb promoter-lacz e. coli
[3] = micF promoter-lacZ induction (preferred kit, β-galactosidase); details: promoter-lacz bacterial strain
[4] = groE promoter-lacZ induction (preferred kit, β-galactosidase); details: groe promoter-lacz e. coli
dinD promoter [5] = details: cited from earlier work
sodA gene = details: cited from earlier work
katG gene = details: cited from earlier work
ahp gene = details: cited from earlier work
in vitro [6] = details: dind promoter-lacz e. coli
[7] = katG promoter-lacZ induction (preferred kit, β-galactosidase); details: promoter-lacz bacterial strain
gsh gene = details: cited from earlier work
[8] = soi28 promoter-lacZ induction (preferred kit, β-galactosidase); details: promoter-lacz bacterial strain
zwf promoter = test: zwf promoter-lacZ induction (preferred kit, β-galactosidase); details: Escherichia coli, read-out: Fold Induction, zwf
zwf gene = details: cited from earlier work
clpB promoter = details: 0.32 mg/ml
micF promoter = test: micF promoter-lacZ induction (preferred kit, β-galactosidase)
proU promoter = test: proU promoter-controlled β-galactosidase expression (Example 7); details: NaCl 0-0.8M; FIG. 5
soi17 promoter = test: soi17 promoter-controlled β-galactosidase expression (Example 7); details: NaCl 0-0.8M; FIG. 5
nfo gene = details: cited from earlier work
rdc promoter = details: cited from earlier work
fepB promoter = test: fepB promoter-controlled β-galactosidase expression (Example 7); details: 2,2'-dipyridyl 0-160 μM; FIG. 6
merR promoter = test: merR promoter-lacZ induction (preferred kit, β-galactosidase)
[9] = test system: mutant strains of Salmonella typhimurium; details: cited from earlier work
soi28 promoter [10] = test: soi28 promoter-controlled β-galactosidase expression (Example 7)
dinD promoter [11] = test system: dinD promoter
soi28 promoter [12] = test: soi28 promoter-lacZ induction (preferred kit, β-galactosidase)
[13] = nfo promoter-lacZ induction (preferred kit, β-galactosidase); details: nfo promoter-lacz e. coli
topA promoter = test: topA promoter-lacZ induction (preferred kit, β-galactosidase); details: Escherichia coli, read-out: Fold Induction, topA
micF gene = details: cited from earlier work
ndh promoter = test: ndh promoter-controlled β-galactosidase expression (Example 7)
[14] = 2,2'-dipyridyl 0-160 μM, FIG. 6

For `O=C1O[C@H]([C@@H](O)CO)C(O)=C1O` [Ascorbic acid], the “number of hydrogen peroxide induced DNA strand breaks” value (DNA strand breaks) is listed as “reduce the number of hydrogen peroxide induced DNA strand breaks”.

In the case of `COS(C)(=O)=O` [Methyl Methane-sulfonate, methyl methanesulfonate], the “ada gene expression induction” value (ada gene) is given as “induce ada gene expression”, the “induction of ada promoter” value (ada promoter) is given as “specifically induces the ada promoter” and the “induction of nfo promoter (oxygen-dependent damage)” value (nfo promoter; MMS 0-40 nM, FIG. 3) is given as “not oxygen-dependent (nfo promoter)”. For the same compound, the “induction of dinD promoter (strand breaks)” value (dinD promoter [1]; MMS 0-40 nM, FIG. 3) was “not via stand breaks (dinD promoter)” and the “induction of adaA promoter (DNA alkylation)” value (adaA promoter; MMS 0-40 nM, FIG. 3) was “induction of the adaA promoter”.

For `CCCO` [1-propanol], the fold induction (in vitro [2]) was 5.6, the fold induction [3] was 4 and the fold induction [4] was 1.5.

For bleomycin, the dinD induction (dinD promoter [5]) is listed as “Typical inducers of dinD”.

For `C[n+]1c2ccccc2nc2ccccc21` [phenazine methyl sulfate], the sodA gene induction (sodA gene) is given as “strongly induced”.

Compound `Oc1ccccc1` [Phenol] has a fold induction (in vitro [2]) of 1.5 and a fold induction [4] of 2.2.

In the case of `OO` [Hydrogen peroxide], the katG gene induction (katG gene) is listed as “can be induced”, the ahp gene induction (ahp gene) is listed as “induced” and the dinD induction (dinD promoter [5]) is listed as “does not respond to oxidative DNA damage, except when cells are exposed to extremely high concentrations of H2 O2”. For the same compound, the fold induction (in vitro [6]) was 3 and the fold induction [7] was 2.

For `CCN1C(=O)C=CC1=O` [N-ethylmaleimide], the gsh gene induction (gsh gene) is given as “induced”.

Work on `ClC(Cl)Cl` [Chloroform] yielded a fold induction (in vitro [2]) of 4.5 and a fold induction [8] of 2.

Compound `CN(C)C=O` [N,N Dimethyl formamide] has a fold induction (in vitro [2]) of 2.5, a fold induction at 0.8 % (zwf promoter) of 1.5 and a fold induction [3] of 3.3.

In the case of nitric oxide, the zwf gene induction (zwf gene) is given as “induced”.

In the case of `c1cnc2c(c1)ccc1cccnc12` [1, 10-phenanthroline], the sodA gene induction (sodA gene) is listed as “also induced”.

With `O=[N+]([O-])c1ccc(F)c([N+](=O)[O-])c1` [Dinitrofluoro benzene] the “Fold Induction, clpB” value (clpB promoter) was 2 fold and the “Fold Induction, micF” value (micF promoter; 0.32 mg/ml) was 3.2 fold.

With `[Cl-].[Na+]` [NaCl, sodium chloride] the “induction of sodA promoter (superoxide formation)” value (sodA promoter; NaCl 0-0.8M, FIG. 5) was “no induction of sodA or soi17”, the “induction of proU promoter” value (proU promoter) was “induces the proU promoter” and the “induction of soi17 promoter (superoxide formation)” value (soi17 promoter) was “no induction of sodA or soi17”.

For `CC1=CC(=O)c2ccccc2C1=O` [menadione], the sodA gene induction (sodA gene) is listed as “strongly induced” and the nfo induction (nfo gene) is listed as “specifically induced”.

In the case of `O=C(O)CN(CCN(CC(=O)O)CC(=O)O)CC(=O)O` [EDTA], the sodA gene induction (sodA gene) is given as “also induced”.

In the case of `CCOS(C)(=O)=O` [EMS, ethlymethanosulfate], the “ada gene expression induction” value (ada gene) is given as “induce ada gene expression”.

For `OCC(O)CS` (stereo not drawn) [thioglycerol], the rdc promoter induction (rdc promoter) is given as “induced”.

In the case of `CC(C)(C)c1cc(O)ccc1O` [Tert-butyl hydroquinone], the fold induction at 2000 µM (in vitro [2]) is reported as 2.8 and the fold induction at 2000 µM [3] is reported as 2.6.

In the case of `c1ccc(-c2ccccn2)nc1` [2,2'-dipyridyl], the “effect on DNA replication (sfiA promoter)” value (sfiA promoter; [14]) is listed as “no effect on DNA replication (sfiA promoter)”, the “induction of sodA promoter (superoxide formation)” value (sodA promoter; [14]) is listed as “sodA induction” and the sodA gene induction (sodA gene) is listed as “also induced”. For the same compound, the “induction of fepB promoter (chelating metals)” value (fepB promoter) was “fepB induction”.

For `[Cl][Hg][Cl]` [Mercuric chloride], the “Fold Induction, merR” value (merR promoter; 2 ng/ml) was 27 fold and the “induction of merR promoter” value (merR promoter; mercuric chloride, FIG. 10) was “specifically induces the merR promoter”.

In the case of `CO[C@@]12[C@H](COC(N)=O)C3=C(C(=O)C(C)=C(N)C3=O)N1C[C@@H]1N[C@@H]12` [Mitomycin C], the dinD induction (dinD promoter [5]) is given as “Typical inducers of dinD”, the “dinD controlled β-galactosidase expression” value (dinD promoter [1]; 15 min exposure) is given as 350 and the “dinD controlled β-galactosidase expression” value (dinD promoter [1]; 25 min exposure) is given as 1036. For the same compound, the “dinD controlled β-galactosidase expression” value (dinD promoter [1]; 35 min exposure) was 811, the “dinD controlled β-galactosidase expression” value (dinD promoter [1]; 55 min exposure) was 1204 and the fold induction at 5 µg/mL (dinD promoter [1]; Escherichia coli, 55 min, read-out: dinD promoter induction) was ~4.

For `CC1=CC(=O)c2c(O)cccc2C1=O` [plumbagin], the “response in Ames Assay” value [9] is given as “neither compound produces a positive response”, the sodA gene induction (sodA gene) is given as “strongly induced” and the “induction of soi28 promoter” value (soi28 promoter [10]; plumbagin 0-160 μM, FIG. 4) is given as “cause induction of the soi28 promoter”.

For `O=[N+]([O-])c1cc[n+]([O-])c2ccccc12` [4-NQO, 4-nitroquinoline oxide], the “induction of dinD promoter” value (dinD promoter [11]; 4-NQO, FIG. 11) is listed as “causes induction of the dinD promoter”, the “induction of sfiA promoter” value (sfiA promoter; 4-NQO 0-100 picomolar, FIG. 2) is listed as “induction of the sfiA and dinD promoters” and the dinD induction (dinD promoter [5]) is listed as “Typical inducers of dinD”. The “induction of soi28 promoter” value (soi28 promoter [12]; 4-NQO, FIG. 11) was “to a lesser extent”, the “induction of nfo promoter” value (nfo promoter; 4-NQO 0-100 picomolar, FIG. 2) was “minor, but dose-dependent induction” and the “induction of dinD promoter” value (dinD promoter [1]; 4-NQO 0-100 picomolar, FIG. 2) was “induction of the sfiA and dinD promoters”. For the same compound, the “induction of adaA promoter (DNA alkylation)” value (adaA promoter; 4-NQO 0-100 picomolar, FIG. 2) was “not DNA alkylation (adaA promoter)”.

`C[S+](C)[O-]` [DMSO] gave a fold induction (in vitro [2]) of 2, a fold induction (in vitro [6]) of 2.2 and a fold induction [13] of 1.6. The fold induction at 25 % (topA promoter) was 1.7.

For `CN(C)c1ccc2nc3ccc(=[N+](C)C)cc-3sc2c1` [methylene blue], the sodA gene induction (sodA gene) is given as “strongly induced”.

In the case of `COC1=C(N)C(=O)c2nc(-c3nc(C(=O)O)c(C)c(-c4ccc(OC)c(OC)c4O)c3N)ccc2C1=O` [streptonigrin], the sodA gene induction (sodA gene) is listed as “strongly induced”.

In the case of `C[n+]1ccc(-c2cc[n+](C)cc2)cc1` [Paraquat], the “effect on dinD promoter” value (dinD promoter [11]) is given as “apparent inhibition”, the “response in Ames Assay” value [9] is given as “neither compound produces a positive response” and the sodA gene induction (sodA gene) is given as “strongly induced”. The micF gene induction (micF gene) was “induced”, the nfo induction (nfo gene) was “specifically induced” and the fold induction at 8000 µg/mL (zwf promoter) was 3. For the same compound, the “induction of micF promoter” value (micF promoter) was “specific induction of the soi28 and micF promoters”, the “effect on merR promoter” value (merR promoter) was “apparent inhibition” and the “induction of soi28 promoter” value (soi28 promoter [12]) was “specific induction of the soi28 and micF promoters”. The “induction of ndh promoter” value (ndh promoter) was “negligible effect”, the “ndh induction, galactosidase activity” value (ndh promoter; 50 μM, 0 μM control 464) was 980 units and the “induction of nfo promoter” value (nfo promoter) was “induced the nfo promoter”. For the same compound, the “nfo induction, galactosidase activity” value (nfo promoter; 50 μM, 0 μM control 2952) was 8100 units, the “induction of soi28 promoter” value (soi28 promoter [10]) was “cause induction of the soi28 promoter” and the “soi28 induction, galactosidase activity” value (soi28 promoter [10]; 50 μM, 0 μM control 670) was 2370 units.

In the case of `CCO` [Ethanol], the micF gene induction (micF gene) is listed as “also induced”, the fold induction [3] is listed as 2.5 and the fold induction [8] is listed as 1.7.
